Assay [1] has as its target SARS-CoV-2 RdRp (Severe acute respiratory syndrome coronavirus 2, UniProt P0DTD1). Put plainly: cell-based. It is filed as cell-based. The conditions noted are these: for inhibition at 100 µM: read-out: Inhibition % of RdRp Activity at Max. Dose; for FLuc activity (internal control): compound at the indicated concentrations; for Effect on SARS-CoV-2 RdRp activity: without nsp7 and nsp8.

For assay [2], the system named is SARS-CoV-2 RdRp with nsp7 and nsp8. It is filed as cell-based. Particulars: nsp7 + nsp8 or nsp8-IRES-nsp7 plasmids co-transfected, HEK293T.
For assay [3], the system named is SARS-CoV-2. The conditions noted are these: cited from earlier work.
Where [4] appears, read: HEK-293T, max. dose 100 μM, HEK293T, 15 h.
Where [5] appears, read: […], mean ± standard error of the mean, read-out: IC50 of SARS-CoV-2 RdRp activity.
Where [6] appears, read: representative experiment, non-linear regression graph, HEK293T, 15 h, read-out: IC50 of SARS-CoV-2 RdRp activity in the figure.
The mark [7] stands for this setting: IC50 of SARS-CoV-2 RdRp activity.

Consider 9 molecules from article PMC8392292 (Biomedicines, 2021).

SMILES strings stand for the structures. Structures can show the parent of a compound that is named as a salt. Where two headings read alike, the source gives them in different places. Bounds are passed on as bounds.

As usually defined, the inhibition is the share of the control response that was lost under treatment. The term IC50 denotes the concentration that inhibits the measured activity by half. In the case of `Cc1cn([C@@H]2C[C@@H](O)[C@H](CO)O2)c(=O)[nH]c1=O` [Telbivudine, telbivudine], in assay [1] (setting [4]), the inhibition at 100 µM was 76.9%. Besides, the IC50 in assay [1] (setting [5]) was 45.9 ± 3.86 µM; in assay [1] (setting [6]), 39.6 µM.

`N=C(N)/N=C(\N)N1CCOCC1` [Moroxydine, moroxydine HCl]: the inhibition at 100 µM in assay [1] (setting [4]) is 76.5%. The IC50 in assay [1] (setting [5]) was determined as 48.9 ± 14.4 µM; in assay [1] (setting [6]), 37.1 µM.

As to `CC(C)(C)C(=O)OCOP(=O)(COCCn1cnc2c(N)ncnc21)OCOC(=O)C(C)(C)C` [Adefovir Dipivoxil, adefovir dipivoxil], the IC50 in assay [1] (setting [5]) is 3.78 ± 0.866 µM; in assay [1] (setting [6]) it was 3.92 µM.

As to `Nc1nc(=O)n([C@@H]2CS[C@H](CO)O2)cc1F` [Emtricitabine, emtricitabine], the inhibition at 100 µM in assay [1] (HEK-293T) was 88.2%. Moreover, the IC50 in assay [1] (setting [7]) came to 15.4 ± 3.6 µM; in assay [1] (IC50 of SARS-CoV-2 RdRp activity in the figure), 13.8 µM.

For `CCC(CC)COC(=O)[C@H](C)N[P@](=O)(OC[C@H]1O[C@@](C#N)(c2ccc3c(N)ncnn23)[C@H](O)[C@@H]1O)Oc1ccccc1` [Remdesivir], in assay [1] (HEK293T), the “FLuc activity (internal control)” value is reported as “maintained”. Further, the inhibition at 6.7 µM in assay [1] (HEK-293T, max. dose 6.7 μM, HEK293T, 15 h) was found to be 71%.

In assay [1] (HEK-293T, max. dose 10 μM, HEK293T, 15 h), `COc1ccc2cc1Oc1ccc(cc1)C[C@H]1c3c(cc4c(c3Oc3cc5c(cc3OC)CCN(C)[C@@H]5C2)OCO4)CCN1C` [Cepharanthine, cepharanthine] showed an inhibition at 10 µM of 5.84%. The IC50 in assay [1] (setting [7]) was > 10 µM. Also, the “Effect on SARS-CoV-2 RdRp activity” value in assay [1] (HEK293T) is given as “did not affect”; in assay [1] (HEK293T, listed as cepharanthine) it was “did not display any inhibitory effect”. The “Effect on SARS-CoV-2 RdRp activity with nsp7 and nsp8” value in assay [2] was “did not affect”; in assay [2] (listed as cepharanthine), “did not display any inhibitory effect”.

`Cl.O[C@H]1[C@H]2c3cc4c(cc3CN3CCC(=C[C@@H]1O)[C@H]23)OCO4` [Lycorine, lycorine hydrochloride]: the “FLuc activity (internal control)” value in assay [1] (HEK293T) is given as “remained unchanged”. The IC50 in assay [1] (setting [5]) is 1.47 ± 0.033 µM; in assay [1] (setting [6]), 1.34 µM; in assay [3] it was 0.878 ± 0.022 µM.

With `C=C1[C@H](CO)[C@@H](O)C[C@@H]1n1cnc2c(=O)[nH]c(N)nc21` [Entecavir Hydrate, entecavir hydrate], the inhibition at 100 µM in assay [1] (setting [4]) came to 83.1%.

With `CO[C@H]1/C=C/O[C@@]2(C)Oc3c(C)c(O)c4c(O)c(c(/C=N/N5CCN(C)CC5)c(O)c4c3C2=O)NC(=O)/C(C)=C\C=C\[C@H](C)[C@H](O)[C@@H](C)[C@@H](O)[C@@H](C)[C@H](OC(C)=O)[C@@H]1C` [Rifampin, rifampin], the IC50 in assay [1] (setting [5]) was 49.4 ± 4.02 µM; in assay [1] (setting [6]) it was 30.3 µM.
